# Test results as given in US4439365A, “Novel hydroxy substituted prostanoic acids, esters, congeners, intermediates and process” (American Cyanamid Company, priority 1979, dated 1984).
# Experiments:
# [1] = tested on: ulcerogenic properties of indomethacin; test: Protection against indomethacin-induced ulcers in rats; format: in vivo; settings: indomethacin 20 mg./kg. s.c.
# Procedure: The compounds of this invention provide protection against the ulcerogenic properties of indomethacin. This assay was carried out in the following manner.
# Rats were starved for 48 hours (water was given ad libitum). Indomethacin (20 mg./kg. of body weight) was administered by the subutaneous route and one-half the dose of the test compound was administered by gavage at the same time. After three hours, the second half of the test compound was administered also by Gavage. Five hours after the administration of indomethacin the animals were decapitated and the stomachs removed. The stomachs were washed with distilled water, blotted on gauze, cut along the larger curvature, and the contents rinsed with distilled water. The stomachs were spread out, pinned on a cork and visualized under magnifying glass for ulcers. The criteria for scoring of ulcers was as previously reported. [Abdel-Galil et al. Brit. J. Pharmac. Chemotherapy 33:1-14 (1968)]. […]
# Control animals treated with indomethacin but not test compound consistently give scores of about 3.0-3.5. Control animals treated with neither indomethacin nor test compound give scores of about 0.5-0.8. Compounds producing a score of 2.5 or lower are considered to be active.
# gastric acid secretion = test: Gastric acid secretion inhibition, modified Shay rat procedure; format: in vivo, rats (male, CFE strain); settings: pylorus-ligated rats, intraduodenal dose 100 mg./kg., 3 hours, 20% or more active, read-out: Percent Inhibition of gastric acid secretion
# Procedure: The novel compounds of the present invention are also effective inhibitors of gastric acid secretion and of ulcer development in experimental animals, and thus are potentially valuable as agents for the control of gastric acid secretion and of gastric erosion and as anti-ulcer agents. Gastric acid secretion inhibitory action is usually measured by the "Shay rat" procedure^(1,2) with some modifications as follows.
# The rats (male, CFE strain), were starved for 48 hours (water was given ad libitum) to permit evacuation of stomach contents. On the morning of the experiment, under ether anesthesia, the abdominal region was shaved and a midline incision (1-11/2") was made with a scapel. […]
# The abdominal cavity was exposed by cutting with scissors and the esophagus close to the stomach was clamped off with a hemostat, the stomach was removed by cutting above the hemostat (the esophagus was cut) and between the two sutures. […] The supernatant was collected, volume measured and recorded, 2 drops of a phenolphthalein indicator (1% in 95% ethanol) were added and the solution was titrated with 0.02 N NaOH (or with 0.04 N NaOH when large volumes of stomach contents were encountered) to pH 8.4 (because of usual coloring of the stomach contents, phenolphthalein was only used to permit visual indication that the end point was near) and the amount of acid present was calculated. […]
# [2] = total oral dose 25 mg./kg. in two halves by gavage, scale 0 normal stomach to 4 many ulcers, mainly large, 2.5 or lower active, control 3.2
compound,measurement,setting,value
CCCCCC(O)/C=C/C1CCC(=O)C1CCCCCC(CC)C(=O)O (stereo not drawn) [9-oxo-15-hydroxy-2-ethyl-13-trans-prostenoic acid],Score Treated (ulcer score),"[1]; total oral dose 50 mg./kg. in two halves by gavage, scale 0-4, 2.5 or lower active, control 3.0",2.2
CCCCCC(O)/C=C/[C@H]1CCC(=O)[C@]1(C)CCCCCCC(=O)O (relative stereo) [9-oxo-8β-methyl-15-hydroxy-13-trans-prostenoic acid],Score Treated (ulcer score),"[1]; total oral dose 12.5 mg./kg. in two halves by gavage, scale 0-4, 2.5 or lower active, control 3.0",2.0
CCCCC[C@H](O)/C=C/[C@H]1CCC(=O)[C@@H]1CCCCSCC(=O)O (relative stereo) [9-oxo-3-thia-15-hydroxy-13-trans-prostenoic acid],Score Treated (ulcer score),[1]; [2],1.8
CCCCCC(O)/C=C\C1CCC(=O)C1CCCCCCC(=O)O (stereo not drawn) [9-oxo-15-hydroxy-13-cis-prostenoic acid],Score Treated (ulcer score),"[1]; total oral dose 100 mg./kg. in two halves by gavage, scale 0-4, 2.5 or lower active, control 3.0",1.3
CCCCC(CC)C(O)/C=C/C1CCC(=O)C1CCCCCCC(=O)O (stereo not drawn) [9-oxo-15-hydroxy-16-ethyl-13-trans-prostenoic acid],Score Treated (ulcer score),[1]; [2],1.7
CCCCC[C@@H](O)/C=C/[C@H]1CCC(=O)[C@@H]1CCCCSCC(=O)O (relative stereo) [9-oxo-3-thin-15-epi-hydroxy-13-trans-prostenoic acid],Score Treated (ulcer score),[1]; [2],2.3
"CCCCCC(O)/C=C/C1CCC(=O)C1CCCCC(C)(C)CC(=O)O (stereo not drawn) [9-oxo-15-hydroxy-3,3-dimethyl-13-trans-prostenoic acid]",inhibition at 100 mg/kg,gastric acid secretion,51%
